Tests used:
[1] = tested on: CFA-induced pain model; experiment: Antiallodynic activity on Complete Freund's Adjuvant (CFA)-induced inflammatory pain model (von Frey); assay type: in vivo, Sprague-Dawley rats; conditions: rat, intraperitoneal; for response vs control in vivo at 40 mg/kg / response vs control in vivo at 18 mg/kg / response vs control in vivo at 60 mg/kg: Rattus norvegicus, read-out: CFA model: effect (%) at the concentration administered
Protocol: Male, Sprague-Dawley rats (200-220 g, Nara Bio, Korea) were habituated for 1 week before surgery and allowed free access to food and water throughout the experimentation. Room temperature and humidity were maintained at 24±2° C. and 50±10%, respectively.
CFA-induced inflammatory pain was induced by the procedure of Nagakura et al. (2003) and Gregory P. et al. (2010) with minor modifications. CFA (sigma, USA) was injected in the left plantar with a 100 ul volume under gaseous anesthesia with isoflurane a 4:4 flow ratio of NO2 Sham controls were injected with 100 ul of saline and vehicle controls were identical to CFA infusion model, except for administration of vehicles.
(§1) Tactile sensitivity (Mechanical allodynia) was evaluated using von Frey monofilaments before and after treatment, and animals were used withdrawal threshold value was less than 4 g. One week after surgery, CFA-infused animals (n=4˜6), sham-operated animals (n=12), and vehicle-operated animals (n=17) were tested for tactile sensitivity with von Frey monofilaments 3 trials in each animal. All Animals were placed in a stainless steel mashed chamber and habituated for 30 min in the test box. The tactile sensitivity for ipsilateral hind paw was measured using the up-and-down method (Dixon, 1980) with seven von Frey monofilaments (0.4, 1, 2, 4, 6, 8, and 15 g) to 3 trials. Tactile sensitivity test was followed by Dixon's method (Dixon, 1980). The 50% paw withdrawal threshold for each paw was calculated using the following formula: [Xth] log=[vFr] log+ky where [vFr] is the force of the last von Frey used, k=0.2249 which is the average interval (in log units) between the von Frey monofilaments, and y is a value that depends upon the pattern of withdrawal responses (Dixon, 1980).
[…] The test was performed peak time of efficacy (0.5 hr) after compound administration.
The relative values compared to the sham (% control) were calculated and shown in Table 4, which show an antiallodynic effect of the compound of Examples on CFA-induced pain model in rats.

[2] = tested on: SNL model; experiment: Antiallodynic activity on Chung model (SNL, spinal nerve ligation; von Frey); assay type: in vivo, Sprague-Dawley rats; conditions: 0.5 h, rat, oral, read-out: SNL model: effect (%) at the concentration administered
Protocol: Male. Sprague-Dawley rats (200-220 g, Orient Bio, Korea) were habituated for 1 week before the experiment and allowed free access to food and water throughout the experimentation. Room temperature and humidity were maintained at 24±2° C. and 50±10%, respectively. Neuropathic surgery (SNL, Spinal nerve ligation) model was clone as described in Kim and Chung (1992). Briefly, animal under gaseous anesthesia with isoflurane a 4:4 flow ratio of NO2. The left lumber spinal nerve L5 and L6 were isolated and tightly ligated with 4-0 silk thread. The wound was treated with a gentamicin antibiotics solution (4 mg/kg, 4 ul/g, bw), and the wound muscle was closed with cat cut chrom 4/0 thread and skin was closed dafilon 4/0 tread. Sham controls were prepared in the same manner as the spinal nerves were exposed, but no ligated L5 and L6 nerves. But, vehicle controls were identical to SNL model, except for administration of vehicles.
as §1, with “treatment” for “treatment,”, “SNL-operated” for “CFA-infused”, “(n=4˜10)” for “(n=12),”, “(n=4˜13)” for “(n=17)”
All animals were fasted 18 h before the administration of the compounds. The antiallodynic effect of the compounds were evaluated at the various dose (n=5˜6), orally administrated in a volume of 5 ul/g, bw in a vehicle of 30% (v/v) PEG 400 or 20% (v/v) Tween 80 or Saline. […]
The relative values compared to the sham group (% control) were calculated and shown in Table 5, which show an antiallodynic effect of the test compounds on SNL model in rats.

`Nc1ccccc1[C@@H]1OC2(CCCC2)O[C@H]1COS(N)(=O)=O` [Example 72, ((2S,3S)-3-(2-aminophenyl)-1,4-dioxaspiro[4,4]nonan-2-yl)methyl sulfamate] was tested, and the response vs control in vivo at 40 mg/kg ([1]; ip, 0.5 h, 0.5 h) was 22.6% and the response vs control in vivo at 50 mg/kg [2] was 35.1%.

With `Cc1ccccc1[C@@H]1OC(C)(C)O[C@H]1COS(N)(=O)=O` [Example 92, ((4S,5S)-5-(2-methylphenyl)-2,2-dimethyl-1,3-dioxolan-4-yl)methyl sulfamate] the response vs control in vivo at 18 mg/kg ([1]; ip, 0.5 h, 0.5 h) was 22.3% and the response vs control in vivo at 50 mg/kg [2] was 37.3%.

`CC1(C)O[C@H](COS(N)(=O)=O)[C@@H](Cc2ccccc2Cl)O1` [Example 146, ((4R,5R)-5-(2-chlorobenzyl)-2,2-dimethyl-1,3-dioxolan-4-yl)methyl sulfamate] gave a response vs control in vivo at 40 mg/kg ([1]; ip, 0.5 h, 0.5 h) of 16.5% and a response vs control in vivo at 90 mg/kg [2] of 45.8%.

Work on `NS(=O)(=O)OCC[C@H]1OC2(CCCC2)O[C@@H]1Cc1ccccc1` [Example 118, 2-((2R,3R)-3-benzyl-1,4-dioxaspiro[4,4]nonan-2-yl)ethyl sulfamate] yielded a response vs control in vivo at 40 mg/kg ([1]; ip, 0.5 h, 0.5 h) of 25% and a response vs control in vivo at 90 mg/kg [2] of 38.3%.

With `CC1(C)O[C@@H](COS(N)(=O)=O)[C@H](c2ccccc2)O1` [Example 106, ((4S,5S)-5-phenyl-2,2-dimethyl-1,3-dioxolan-4-yl)methyl sulfamate] the response vs control in vivo at 18 mg/kg ([1]; ip, 0.5 h, 0.5 h) was 23.2% and the response vs control in vivo at 50 mg/kg [2] was 25.4%.

Work on `CC1(C)O[C@H](CCOS(N)(=O)=O)[C@@H](Cc2ccccc2Cl)O1` [Example 138, 2-((4R,5R)-5-(2-chlorobenzyl)-2,2-dimethyl-1,3-dioxolan-4-yl)ethyl sulfamate] yielded a response vs control in vivo at 40 mg/kg ([1]; ip, 0.5 h, 0.5 h) of 32.7% and a response vs control in vivo at 90 mg/kg [2] of 71.4%.

`CC1(C)O[C@H](c2ccccc2I)[C@@H](COS(N)(=O)=O)O1` [Example 27, ((4R,5R)-5-(2-iodophenyl)-2,2-dimethyl-1,3-dioxolan-4-yl)methyl sulfamate] gave a response vs control in vivo at 18 mg/kg ([1]; ip, 0.5 h, 0.5 h) of 20.2% and a response vs control in vivo at 50 mg/kg [2] of 17.3%.

In the case of `CCC1(CC)O[C@@H](CCOS(N)(=O)=O)[C@H](c2ccccc2)O1` [Example 132, 2-((4S,5S)-5-phenyl-2,2-diethyl-1,3-dioxolan-4-yl)ethyl sulfamate], the response vs control in vivo at 40 mg/kg ([1]; ip, 0.5 h, 0.5 h) is reported as 24.8%.

For `NS(=O)(=O)OC[C@H]1OC2(CCCCC2)O[C@@H]1Cc1ccccc1Cl` [Example 152, ((2R,3R)-3-(2-chlorobenzyl)-1,4-dioxaspiro[4,5]decan-2-yl)methyl sulfamate], the response vs control in vivo at 40 mg/kg ([1]; ip, 0.5 h, 0.5 h) was 34.9%.

With `CCC1(CC)O[C@H](COS(N)(=O)=O)[C@@H](Cc2ccccc2Cl)O1` [Example 148, ((4R,5R)-5-(2-chlorobenzyl)-2,2-diethyl-1,3-dioxolan-4-yl)methyl sulfamate] the response vs control in vivo at 40 mg/kg ([1]; ip, 0.5 h, 0.5 h) was 15.5%.

In the case of `CCC1(CC)O[C@H](COS(N)(=O)=O)[C@@H](Cc2ccccc2)O1` [Example 124, ((4R,5R)-5-benzyl-2,2-diethyl-1,3-dioxolan-4-yl)methyl sulfamate], the response vs control in vivo at 40 mg/kg ([1]; ip, 0.5 h, 0.5 h) is reported as 34.2%.

With `CC1(C)OC(COS(N)(=O)=O)C(c2ccccc2Cl)O1` (mixture of isomers) [Example 4, (5-(2-chlorophenyl)-2,2-dimethyl-1,3-dioxolan-4-yl)methyl sulfamate(SR & RS mixture)] the “CFA model: effect (%) at the concentration administered” value ([1]; 60 mg/kg, 0.5 h) was “^#60 (49.9%, 0.5 h)”.

For `CCC1(CC)O[C@@H](COS(N)(=O)=O)[C@H](c2ccccc2Cl)O1` [Example 8, ((4S,5S)-5-(2-chlorophenyl)-2,2-diethyl-1,3-dioxolan-4-yl)methyl sulfamate], the response vs control in vivo at 40 mg/kg ([1]; ip, 0.5 h, 0.5 h) was 23.3%.

`Nc1ccccc1[C@@H]1OC(c2ccccc2)O[C@H]1COS(N)(=O)=O` (stereo partly drawn) [Example 76, ((4S,5S)-5-(2-aminophenyl)-2-phenyl-1,3-dioxolan-4-yl)methyl sulfamate] showed a response vs control in vivo at 40 mg/kg ([1]; ip, 0.5 h, 0.5 h) of 25.7% and a response vs control in vivo at 90 mg/kg [2] of 22.9%.

In the case of `CC1(C)O[C@H](c2sc(Cl)nc2Cl)[C@@H](COS(N)(=O)=O)O1` [Example 163, ((4R,5S)-5-(2,4-dichlorothiazol-5-yl)-2,2-dimethyl-1,3-dioxolan-4-yl)methyl sulfamate], the response vs control in vivo at 40 mg/kg ([1]; ip, 0.5 h, 0.5 h) is reported as 23.1%.

Work on `Cc1nc(Cl)sc1[C@@H]1OC(C)(C)O[C@H]1COS(N)(=O)=O` [Example 170, ((4S,5R)-2,2-dimethyl-5-(2-chloro-4-methylthiazol-5-yl)-1,3-dioxolan-4-yl)methyl sulfamate] yielded a response vs control in vivo at 60 mg/kg ([1]; ip, 0.5 h, 60 mg/kg, 0.5 h) of 24.2%.

Work on `CC1(C)OC(COS(N)(=O)=O)C(c2cnccc2Cl)O1` (centres unmarked) [Example 174, (5-(4-chloropyridin-3-yl)-2,2-dimethyl-1,3-dioxolan-4-yl)methyl sulfamate] yielded a response vs control in vivo at 60 mg/kg ([1]; ip, 0.5 h, 60 mg/kg, 0.5 h) of 24.7%.

In the case of `CC1(C)O[C@@H](COS(N)(=O)=O)[C@H](c2sc(Cl)nc2Cl)O1` [Example 164, ((4S,5R)-5-(2,4 dichlorothiazol-5-yl)-2,2-dimethyl-1,3-dioxolan-4-yl)methyl sulfamate], the response vs control in vivo at 60 mg/kg ([1]; ip, 0.5 h, 60 mg/kg, 0.5 h) is reported as 66.8%.

For `CC1(C)O[C@@H](COS(N)(=O)=O)[C@H](c2ccsc2)O1` [Example 171, ((4S,5S)-2,2-dimethyl-5-(thiophen-3-yl)-1,3-dioxolan-4-yl)methyl sulfamate], the response vs control in vivo at 60 mg/kg ([1]; ip, 0.5 h, 60 mg/kg, 0.5 h) was 29.8%.

For `CC1(C)O[C@H](COS(N)(=O)=O)[C@@H](Cc2ccccc2)O1` [Example 122, ((4R,5R)-5-benzyl-2,2-dimethyl-1,3-dioxolan-4-yl)methyl sulfamate], the response vs control in vivo at 18 mg/kg ([1]; ip, 0.5 h, 0.5 h) was 22.3% and the response vs control in vivo at 50 mg/kg [2] was 64.1%.

With `Cc1ncsc1[C@H]1OC(C)(C)O[C@@H]1COS(N)(=O)=O` [Example 167, ((4R,5S)-2,2-dimethyl-5-(4-methylthiazol-5-yl)-1,3-dioxolan-4-yl)methyl sulfamate] the response vs control in vivo at 60 mg/kg ([1]; ip, 0.5 h, 60 mg/kg, 0.5 h) was 38.6%.

With `CC1(C)O[C@H](c2cnc(Cl)s2)[C@@H](COS(N)(=O)=O)O1` [Example 165, ((4R,5S)-5-(2-chlorothiazol-5-yl)-2,2-dimethyl-1,3-dioxolan-4-yl)methyl sulfamate] the ED50 ([1]; ip, von Frey, 0.5 h) was > 60 mg/kg and the “CFA model: adverse observation” value ([1]; noted with ED50 >60 mg/kg) was “Seizure”.

From patent publication US9834535B2, “Sulfamate derivative compounds for use in treating or alleviating pain” (Bio-Pharm Solutions Co., Ltd., priority 2013, dated 2017)
